In experiment [1] the target is GSK3α (Homo sapiens, UniProt P49840). Kind of experiment: In vitro kinase specificity profiling for GSK3α. It counts as biochemical.
In experiment [2] the target is JAK2 (Homo sapiens, UniProt O60674). Kind of experiment: In vitro kinase specificity profiling. In kind it is biochemical.
In experiment [3] the test system is PD-L1 Ser279. Put plainly: Immunoblots with phospho-specific antibody against PD-L1 Ser279. The following applies: endogenous (H1975, 2 h) and recombinant (HEK293T, 10 μM, 2 h) PD-L1. It counts as cell-based, human. As for the experimental part: Fig. 2 Phosphorylation on S279/S283 impairs the stability of PD-L1. a Mapping PD-L1 phosphorylation sites following ES-072 treatment. HEK293T cells were transfected with Flag-PD-L1 and treated with 10 μM ES-072 for 48 h. Immunoprecipitated PD-L1 was analyzed by mass spectrometry following phosphopeptide enrichment. Peptide ionization data corresponding to Ser279/283 are shown. b Schematic diagram of phosphorylated sites on PD-L1. Full-length PD-L1 was separated into an extracellular domain (ECD) and intracellular domain (ICD). SP: signal peptide; TM: transmembrane domain. c Schematic diagram of phosphorylated sites, S279 and S283 in the ICD of PD-L1. Positions of phosphorylated sites were labeled in red. […] Scale bars represent 50 μm. i, j Quantification of IHC analysis for p-PD-L1 (Ser279) (i) and PD-L1 (j) in h. […]
For western blot analysis, cells were collected and washed with PBS, then lysed in radioimmunoprecipitation assay (RIPA) buffer (1% Triton X-100, 100 mM Tris-HCl pH 8.8, 100 mM NaCl, 0.5 mM EDTA). […] The supernatant was collected and the protein concentration was measured by bicinchoninic acid reaction. […] Signals were detected using chemiluminescence reagents (#4AW001-500, 4A649 Biotech, Co.).

Experiment [4] addresses T790M/L858R EGFR (Homo sapiens, UniProt P00533, L858R/T790M). Put plainly: In vitro kinase specificity profiling. In kind it is biochemical.

Molecules are shown by their SMILES.

Sequence of GSK3α (P49840 whole entry): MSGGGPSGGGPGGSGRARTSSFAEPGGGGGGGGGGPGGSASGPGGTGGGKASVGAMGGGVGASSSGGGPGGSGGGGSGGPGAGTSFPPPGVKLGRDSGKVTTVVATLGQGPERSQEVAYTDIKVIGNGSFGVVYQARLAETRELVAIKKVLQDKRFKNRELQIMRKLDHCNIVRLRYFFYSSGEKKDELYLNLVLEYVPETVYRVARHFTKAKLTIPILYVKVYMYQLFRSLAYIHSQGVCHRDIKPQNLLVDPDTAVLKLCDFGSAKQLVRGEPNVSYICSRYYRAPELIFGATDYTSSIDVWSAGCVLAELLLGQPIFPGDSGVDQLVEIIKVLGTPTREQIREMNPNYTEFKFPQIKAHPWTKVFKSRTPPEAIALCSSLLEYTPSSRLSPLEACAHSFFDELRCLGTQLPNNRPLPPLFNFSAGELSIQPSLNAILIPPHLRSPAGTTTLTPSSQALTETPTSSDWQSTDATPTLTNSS
Sequence of T790M/L858R EGFR (P00533 25-1210 T790M/L858R): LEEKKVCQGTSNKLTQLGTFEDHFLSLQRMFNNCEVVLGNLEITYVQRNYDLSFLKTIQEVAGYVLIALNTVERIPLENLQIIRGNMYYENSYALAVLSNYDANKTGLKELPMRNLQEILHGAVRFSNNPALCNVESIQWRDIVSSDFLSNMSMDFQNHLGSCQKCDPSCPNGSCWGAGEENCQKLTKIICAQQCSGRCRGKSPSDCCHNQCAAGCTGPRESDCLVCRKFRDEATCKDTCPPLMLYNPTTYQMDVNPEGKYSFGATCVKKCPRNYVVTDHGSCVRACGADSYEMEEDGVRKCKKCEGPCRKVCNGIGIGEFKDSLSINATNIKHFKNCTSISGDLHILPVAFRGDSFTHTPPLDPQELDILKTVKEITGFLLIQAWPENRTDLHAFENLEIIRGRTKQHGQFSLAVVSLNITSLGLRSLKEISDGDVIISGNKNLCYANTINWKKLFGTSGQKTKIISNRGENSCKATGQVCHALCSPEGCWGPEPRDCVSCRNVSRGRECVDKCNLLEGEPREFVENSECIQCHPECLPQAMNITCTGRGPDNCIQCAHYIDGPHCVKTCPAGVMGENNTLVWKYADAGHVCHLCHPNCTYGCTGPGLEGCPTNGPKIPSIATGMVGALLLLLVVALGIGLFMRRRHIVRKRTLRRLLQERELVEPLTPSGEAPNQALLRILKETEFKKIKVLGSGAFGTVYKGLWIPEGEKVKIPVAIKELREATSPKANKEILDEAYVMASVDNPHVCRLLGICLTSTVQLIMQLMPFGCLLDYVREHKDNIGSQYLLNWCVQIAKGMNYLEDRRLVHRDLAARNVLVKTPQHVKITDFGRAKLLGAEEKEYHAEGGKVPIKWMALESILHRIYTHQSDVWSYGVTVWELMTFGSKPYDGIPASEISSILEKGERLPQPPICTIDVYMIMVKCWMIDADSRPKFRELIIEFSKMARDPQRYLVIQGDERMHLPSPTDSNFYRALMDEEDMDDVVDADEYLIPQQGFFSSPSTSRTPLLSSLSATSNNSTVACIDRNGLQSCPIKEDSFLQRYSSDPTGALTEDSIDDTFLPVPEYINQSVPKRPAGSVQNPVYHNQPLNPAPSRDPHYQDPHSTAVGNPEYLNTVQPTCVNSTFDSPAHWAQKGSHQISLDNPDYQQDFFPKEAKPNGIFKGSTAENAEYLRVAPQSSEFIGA
Sequence of JAK2 (O60674 whole entry, the tested form may be a part): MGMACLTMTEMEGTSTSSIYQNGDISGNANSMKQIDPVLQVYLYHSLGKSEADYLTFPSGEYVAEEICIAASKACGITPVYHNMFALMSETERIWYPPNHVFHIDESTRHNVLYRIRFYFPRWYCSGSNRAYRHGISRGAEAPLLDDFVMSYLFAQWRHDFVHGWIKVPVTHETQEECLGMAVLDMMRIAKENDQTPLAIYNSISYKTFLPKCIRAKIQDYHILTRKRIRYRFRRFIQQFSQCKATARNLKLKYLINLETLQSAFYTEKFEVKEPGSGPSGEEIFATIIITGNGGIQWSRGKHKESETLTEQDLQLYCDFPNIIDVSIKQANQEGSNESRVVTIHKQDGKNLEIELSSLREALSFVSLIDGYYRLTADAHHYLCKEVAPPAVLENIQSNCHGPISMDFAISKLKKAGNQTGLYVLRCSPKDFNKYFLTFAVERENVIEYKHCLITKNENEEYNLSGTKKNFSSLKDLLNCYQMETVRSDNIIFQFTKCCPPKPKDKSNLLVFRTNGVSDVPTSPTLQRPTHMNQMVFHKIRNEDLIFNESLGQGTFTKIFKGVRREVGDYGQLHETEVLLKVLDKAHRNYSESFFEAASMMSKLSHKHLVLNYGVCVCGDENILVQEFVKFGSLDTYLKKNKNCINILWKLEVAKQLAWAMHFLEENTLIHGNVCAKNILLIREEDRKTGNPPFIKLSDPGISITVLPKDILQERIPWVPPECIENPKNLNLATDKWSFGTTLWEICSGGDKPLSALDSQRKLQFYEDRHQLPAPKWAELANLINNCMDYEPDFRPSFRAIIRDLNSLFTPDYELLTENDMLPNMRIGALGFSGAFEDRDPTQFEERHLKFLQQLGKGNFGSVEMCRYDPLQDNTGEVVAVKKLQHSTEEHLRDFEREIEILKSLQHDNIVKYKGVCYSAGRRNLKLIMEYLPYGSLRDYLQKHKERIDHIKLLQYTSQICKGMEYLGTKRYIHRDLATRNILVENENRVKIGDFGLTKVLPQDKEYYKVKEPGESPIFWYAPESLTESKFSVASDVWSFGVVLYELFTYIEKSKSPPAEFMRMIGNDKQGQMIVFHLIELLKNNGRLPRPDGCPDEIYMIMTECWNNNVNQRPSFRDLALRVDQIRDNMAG

As to `C=CC(=O)Nc1cccc(Nc2nc(Nc3ccc(N4CCN(C)CC4)nc3OC)ncc2C(F)(F)F)c1` [ES-072], the IC50 (as a rule, the concentration needed to halve the response being measured) in experiment [1] (as worded in response to reviewers) was above 40 µM; in experiment [1] (single independent tests) it was above 40 µM; in experiment [2] it was 4.96 µM; in experiment [4], 0.00175 µM. Further, in experiment [3], the “phosphorylation of PD-L1 at Ser279” value was “robust phosphorylation”.
